Structures are written as SMILES. Values after ≈ are worked out from the molar mass of the structure shown. Like-named read-outs stand apart in the source and are kept apart here.

Experimental findings from patent US9133219B2, “Bicyclic antibiotics” (Basilea Pharmaceutica AG, priority 2009, dated 2015) are described below.

What all share (format): cell-based
The subject of one experiment is Streptococcus pneumoniae. As to the kind of experiment: Anti-microbial activity assay, MIC by broth microdilution (CAMHB with 5% horse serum). The conditions noted are these: for MIC: Streptococcus pneumoniae. The method, then:
(§1) Anti-Microbial Activity Assay.
(§2) The antibacterial activity of compounds is determined by the minimal inhibitory concentration (MIC) method. MICs for all bacteria except pneumococci and Haemophilus influenzae are obtained by broth microdilution with cation-adjusted Mueller-Hinton broth (CAMHB; BBL), according to CLSI guidelines (National Committee for Clinical Laboratory Standards. 2003. Methods for dilution antimicrobial susceptibility tests for bacteria that grow aerobically, 5th ed.; approved standard M7-A6. National Committee for Clinical Laboratory Standards, Wayne, Pa.), with the following modifications: (i) for pneumococci CAMHB is supplemented with 5% (^v/v) horse serum; (ii) for Haemophilus influenzae CAMHB is supplemented with 5% (^v/v) Fildes enrichment (BBL) (Pankuch, G. A., Hoellman, D. B., Lin, G., Bajaksouzian, S., Jacobs, M. R., and Appelbaum, P. C. 1998. Activity of HMR 3647 compared to those of five agents against Haemophilus influenzae and Moraxella catarrhalis by MIC determination and time-kill assay. Antimicrob. Agents Chemother. 42:3032-3034). Microtiter plates are incubated at 35° C. in ambient air for 20 to 24 h, then inspected using an illuminated microtiter plate reader fitted with a magnifying mirror (MIC 2000; Cooke Laboratory Products, Alexandria, Va.). Compounds of the present invention are tested against several bacteria strains comprising some Acinetobacter baumannii, Enterococcus faecalis, Enterococcus faecitan, Escherichia coli, Haemophilus influenzae, Klebsiella pneumoniae, Pseudomonas aeruginosa, Staphylococcus aureus, Staphylococcus epidermidis and Streptococcus pneumoniae.
For orientation: Broth dilution looks for growth in wells or tubes with falling amounts of substance.

Another experiment relates to Staphylococcus aureus. As to the kind of experiment: Anti-microbial activity assay, MIC by broth microdilution. As to conditions: for MIC: Staphylococcus aureus. As to the method: as §1, §2
Experiment [1] relates to Staphylococcus epidermidis. The description is as above. As to conditions: strain ATCC14990; for MIC: Staphylococcus epidermidis. As to the method: as §1, §2
Another experiment has as its system Escherichia coli. The experiment is described as above. As to conditions: for MIC: Escherichia coli. As to the method:
as §1, §2

Setting [2] is: strain ATCC49619, CAMHB with 5% horse serum, read-out: MIC Streptococcus pneumoniae ATCC49619.
The mark [3] stands for this setting: strain ATCC29213, read-out: MIC Staphylococcus aureus ATCC29213.
[4] abbreviates: strain UB1005, read-out: MIC Escherichia coli UB1005.
The mark [5] stands for this setting: strain ATCC49619, CAMHB with 5% horse serum.
Setting [6] is: S. pneumoniae ATCC49619, comparison of C4 and C3 position of the methoxyquinoline, same side chain, read-out: MIC.
Setting [7] is: S. aureus ATCC29213, comparison of C4 and C3 position of the methoxyquinoline, same side chain, read-out: MIC.
[8] abbreviates: E. coli UB1005, comparison of C4 and C3 position of the methoxyquinoline, same side chain, read-out: MIC.

Consider `COc1ccc2ncc(OCCN3CCC(N(C)Cc4ccc5c(c4)OCCO5)CC3)nc2c1` [Example 10, (2,3-dihydro-benzo[1,4]dioxin-6-ylmethyl)-{1-[2-(7-methoxy-quinoxalin-2-yloxy)-ethyl]-piperidin-4-yl}-methyl-amine], for which the MIC (as a rule, the lowest concentration found to suppress growth) with Streptococcus pneumoniae (setting [2]) was 8 µg/mL (≈ 17.2 µM); in the experiment with Staphylococcus aureus (setting [3]), 4 µg/mL (≈ 8.61 µM); in experiment [1], 8 µg/mL (≈ 17.2 µM); in the experiment with Escherichia coli (setting [4]) it was more than 32 µg/mL.
In the case of `CCC(Oc1cnc2ccc(OC)cc2n1)N1CCCC(NCc2ccc3c(c2)NC(=O)CS3)C1` (stereo not drawn) [Example 11, 6-({1-[1-(7-methoxy-quinoxalin-2-yloxy)-propyl]-piperidin-3-ylamino}-methyl)-4H-benzo[1,4]thiazin-3-one], the MIC in the experiment with Streptococcus pneumoniae (setting [2]) amounted to 4 µg/mL (≈ 8.1 µM); in the experiment on Staphylococcus aureus (setting [3]), 4 µg/mL (≈ 8.1 µM); in experiment [1], 4 µg/mL (≈ 8.1 µM); in the experiment with Escherichia coli (setting [4]), 16 µg/mL (≈ 32.4 µM).
As to `COc1cccc2ncc(OCCN3CCC(NC(=O)c4ccc5c(c4)NC(=O)CS5)CC3)nc12` [Example 12, 3-oxo-3,4-dihydro-2H-benzo[1,4]thiazine-6-carboxylic acid {1-[2-(8-methoxy-quinoxalin-2-yloxy)-ethyl]-piperidin-4-yl}-amide], the MIC in the experiment on Streptococcus pneumoniae (setting [2]) was 16 µg/mL (≈ 32.4 µM); in the experiment with Staphylococcus aureus (setting [3]) it was 4 µg/mL (≈ 8.1 µM); in experiment [1] it was 4 µg/mL (≈ 8.1 µM); in the experiment on Escherichia coli (setting [4]), not below 32 µg/mL.
Consider `O=C1CSc2ccc(C(=O)NC3CCN(CCOc4cnc5ccc([N+](=O)[O-])cc5n4)CC3)cc2N1` [Example 13, 3-oxo-3,4-dihydro-2H-benzo[1,4]thiazine-6-carboxylic acid {1-[2-(7-nitro-quinoxalin-2-yloxy)-ethyl]-piperidin-4-yl}-amide], for which the MIC was more than 32 µg/mL in the experiment with Streptococcus pneumoniae (setting [2]), 4 µg/mL (≈ 7.87 µM) in the experiment with Staphylococcus aureus (setting [3]), more than 32 µg/mL in experiment [1] and more than 32 µg/mL in the experiment on Escherichia coli (setting [4]).
Regarding `COc1ccc2ncc(OCCN3CCC(NC(=O)c4ccc5c(c4)NC(=O)CS5)CC3)nc2c1` [Example 21, 3-oxo-3,4-dihydro-2H-benzo[1,4]thiazine-6-carboxylic acid {1-[2-(7-methoxy-quinoxalin-2-yloxy)-ethyl]-piperidin-4-yl}-amide], the “MIC Streptococcus pneumoniae ATCC49619” value against Streptococcus pneumoniae (setting [5]) is more than 32 µg/mL. Besides, the “MIC Staphylococcus aureus ATCC29213” value with Staphylococcus aureus (strain ATCC29213) is 8 µg/mL (≈ 16.2 µM). Also, the “MIC Staphylococcus epidermidis ATCC14990” value in experiment [1] turned out to be 16 µg/mL (≈ 32.4 µM). Besides, the “MIC Escherichia coli UB1005” value in the experiment with Escherichia coli (strain UB1005) was “≧32 mg/L”.
`COc1ccc2ncc(OCCN3CC(NC(=O)c4ccc5c(c4)NC(=O)CS5)C3)nc2c1` [Example 22, 3-oxo-3,4-dihydro-2H-benzo[1,4]thiazine-6-carboxylic acid {1-[2-(7-methoxy-quinoxalin-2-yloxy)-ethyl]-azetidin-3-yl}-amide]: the minimal inhibitory concentration (MIC) was determined as 32 µg/mL (≈ 68.7 µM) with Streptococcus pneumoniae (setting [2]), 4 µg/mL (≈ 8.59 µM) in the experiment on Staphylococcus aureus (setting [3]), 4 µg/mL (≈ 8.59 µM) in experiment [1] and 16 µg/mL (≈ 34.4 µM) in the experiment with Escherichia coli (setting [4]).
In the case of `COc1ccc2ncc(OCCCN3CCC(NC(=O)c4ccc5c(c4)NC(=O)CS5)C3)nc2c1` (stereo not drawn) [Example 23], in the experiment with Streptococcus pneumoniae (setting [5]), the “MIC Streptococcus pneumoniae ATCC49619” value was 16 µg/mL (≈ 32.4 µM). The “MIC Staphylococcus aureus ATCC29213” value against Staphylococcus aureus (strain ATCC29213) worked out at 4 µg/mL (≈ 8.1 µM). In experiment [1], the “MIC Staphylococcus epidermidis ATCC14990” value came out at 4 µg/mL (≈ 8.1 µM). Moreover, the “MIC Escherichia coli UB1005” value against Escherichia coli (strain UB1005) came out at 16 µg/mL (≈ 32.4 µM).
With `COc1ccc2ncc(OCCN3CCC(CNC(=O)c4cc5c(cc4Cl)SCC(=O)N5)CC3)nc2c1` [Example 24, 7-chloro-3-oxo-3,4-dihydro-2H-benzo[1,4]thiazine-6-carboxylic acid {1-[2-(7-methoxy-quinoxalin-2-yloxy)-ethyl]-piperidin-4-ylmethyl}-amide], the MIC with Streptococcus pneumoniae (setting [2]) was 16 µg/mL (≈ 29.5 µM); with Staphylococcus aureus (setting [3]) it was 8 µg/mL (≈ 14.8 µM); in experiment [1], 8 µg/mL (≈ 14.8 µM); with Escherichia coli (setting [4]) it was 4 µg/mL (≈ 7.38 µM).
Consider `COc1ccc2ncc(OCCN3CCC(N(C)Cc4ccc5c(c4)NC(=O)CS5)CC3)nc2c1` [Example 25, 6-[({1-[2-(7-methoxy-quinoxalin-2-yloxy)-ethyl]-piperidin-4-yl}-methyl-amino)-methyl]-4H-benzo[1,4]thiazin-3-one], for which the MIC with Streptococcus pneumoniae (setting [2]) is 16 µg/mL (≈ 32.4 µM); in the experiment on Staphylococcus aureus (setting [3]) it was 8 µg/mL (≈ 16.2 µM); in experiment [1], 16 µg/mL (≈ 32.4 µM); in the experiment on Escherichia coli (setting [4]), 8 µg/mL (≈ 16.2 µM).
Regarding `COc1ccc2ncc(OCCN3CCC(CNC(=O)c4cc(-c5cccs5)on4)C3)nc2c1` (stereo not drawn) [Example 26, 5-thiophen-2-yl-isoxazole-3-carboxylic acid {1-[2-(7-methoxy-quinoxalin-2-yloxy)-ethyl]-pyrrolidin-3-ylmethyl}-amide], the MIC in the experiment on Streptococcus pneumoniae (setting [2]) is 8 µg/mL (≈ 16.7 µM); with Staphylococcus aureus (setting [3]), 4 µg/mL (≈ 8.34 µM); in experiment [1] it was 16 µg/mL (≈ 33.4 µM); with Escherichia coli (setting [4]) it was more than 32 µg/mL.
With `COc1ccc2ncc(OCCCN3CCC(CNC(=O)c4cc5c(cc4Cl)SCCN5)C3)nc2c1` (stereo not drawn) [Example 27, 7-chloro-3,4-dihydro-2H-benzo[1,4]thiazine-6-carboxylic acid {1-[3-(7-methoxy-quinoxalin-2-yloxy)-propyl]-pyrrolidin-3-ylmethyl}-amide], the MIC in the experiment with Streptococcus pneumoniae (setting [2]) was found to be 32 µg/mL (≈ 60.6 µM); in the experiment on Staphylococcus aureus (setting [3]) it was 8 µg/mL (≈ 15.1 µM); in experiment [1], 32 µg/mL (≈ 60.6 µM); in the experiment with Escherichia coli (setting [4]), 16 µg/mL (≈ 30.3 µM).
Turning to `COc1ccc2ncc(C(=O)OC[C@H]3CC[C@H](N(C)Cc4ccc5c(c4)OCCO5)CC3)cc2c1` [Example 32, 6-methoxy-quinoline-3-carboxylic acid trans-4-[(2,3-dihydro-benzo[1,4]dioxin-6-ylmethyl)-methyl-amino]-cyclohexylmethyl ester], the MIC in the experiment on Streptococcus pneumoniae (setting [2]) is 32 µg/mL (≈ 67.1 µM); with Staphylococcus aureus (setting [3]), 8 µg/mL (≈ 16.8 µM); in experiment [1], 16 µg/mL (≈ 33.6 µM); with Escherichia coli (setting [4]), more than 32 µg/mL.
With `COc1ccc2ncc(C(=O)OC[C@H]3CC[C@H](NCc4ccc5c(c4)OCCO5)CC3)cc2c1` [Example 33, 6-methoxy-quinoline-3-carboxylic acid trans-4-[(2,3-dihydro-benzo[1,4]dioxin-6-ylmethyl)-amino]-cyclohexylmethyl ester], the MIC was 8 µg/mL (≈ 17.3 µM) in the experiment on Streptococcus pneumoniae (setting [2]), 4 µg/mL (≈ 8.65 µM) in the experiment with Staphylococcus aureus (setting [3]), 8 µg/mL (≈ 17.3 µM) in experiment [1] and more than 32 µg/mL in the experiment on Escherichia coli (setting [4]).
Take `CCN(Cc1ccc2c(c1)OCCO2)[C@H]1CC[C@H](COC(=O)c2cnc3ccc(OC)cc3c2)CC1` [Example 34, 6-methoxy-quinoline-3-carboxylic acid trans-4-[(2,3-dihydro-benzo[1,4]dioxin-6-ylmethyl)-ethyl-amino]-cyclohexylmethyl ester]: the MIC is more than 32 µg/mL with Streptococcus pneumoniae (setting [2]), 8 µg/mL (≈ 16.3 µM) with Staphylococcus aureus (setting [3]), more than 32 µg/mL in experiment [1] and more than 32 µg/mL with Escherichia coli (setting [4]).
As for `COc1ccc2ncc(SCCN3CCC(NCc4ccc5c(c4)NC(=O)CO5)CC3)nc2c1` [Example 40], in the experiment with Streptococcus pneumoniae (setting [5]), the “MIC Streptococcus pneumoniae ATCC49619” value is reported as “≦2 mg/L”. For the same compound, the “MIC Staphylococcus aureus ATCC29213” value against Staphylococcus aureus (strain ATCC29213) is “≦2 mg/L”. In addition, the “MIC Staphylococcus epidermidis ATCC14990” value in experiment [1] was “≦2 mg/L”. Also, the “MIC Escherichia coli UB1005” value in the experiment on Escherichia coli (strain UB1005) is on record as “≦2 mg/L”.
For `COc1ccc2nccc(OC[C@H]3CC[C@H](NCc4ccc5c(c4)OCCO5)CC3)c2c1` [reference compound], the values for the MIC in the experiment on Streptococcus pneumoniae (setting [6]), in the experiment with Staphylococcus aureus (setting [7]) and in the experiment on Escherichia coli (setting [8]) were 0.5 µg/mL (≈ 1.15 µM), 0.5 µg/mL (≈ 1.15 µM) and 16 µg/mL (≈ 36.8 µM), respectively.
With `COc1ccc2nccc(OC[C@H]3CC[C@H](NCc4ccc5c(c4)NC(=O)CO5)CC3)c2c1` [reference compound], the MIC with Streptococcus pneumoniae (setting [6]) was found to be 2 µg/mL (≈ 4.47 µM); in the experiment on Staphylococcus aureus (setting [7]), 1 µg/mL (≈ 2.23 µM); in the experiment with Escherichia coli (setting [8]), 1 µg/mL (≈ 2.23 µM).
Take `COc1ccc2ncc(OC[C@H]3CC[C@H](NCc4ccc5c(c4)OCCO5)CC3)cc2c1` [reference compound]: the MIC is 32 µg/mL (≈ 73.6 µM) with Streptococcus pneumoniae (setting [6]), more than 32 µg/mL in the experiment on Staphylococcus aureus (setting [7]) and more than 32 µg/mL in the experiment on Escherichia coli (setting [8]).
Take `COc1ccc2ncc(OC[C@H]3CC[C@H](NCc4ccc5c(c4)NC(=O)CO5)CC3)cc2c1` [reference compound]: the MIC is 32 µg/mL (≈ 71.5 µM) in the experiment on Streptococcus pneumoniae (setting [6]), more than 32 µg/mL with Staphylococcus aureus (setting [7]) and more than 32 µg/mL in the experiment on Escherichia coli (setting [8]).
